Patent publication US12656356B2, “Pregabalin immunoassays” (ARK Diagnostics, Inc., priority 2015, dated 2026)
Several values for one entry are separate records, joined by “and”; a condition that tells them apart may be missing. Equal entries are not always repeated.

Each molecule was assayed on anti-pregabalin antibody (assay: Specificity of the homogeneous enzyme immunoassay (cross-reactivity)). Settings: compound at 200 μg/mL added to pooled pregabalin-free human urine; Siemens Viva-E System.
Type: binding, rabbit
From the text: Antibodies obtained using any of the disclosed techniques are screened or purified not only for their ability to react with pregabalin, but for a low cross-reactivity with potential interfering substances. “Cross-reactivity” may be determined in a quantitative immunoassay by establishing a standard curve using known dilutions of the target analyte, pregabalin. […] The cross-reactivity is the apparent concentration divided by the actual concentration multiplied by 100. […] Furthermore, the cross-reactivity can be determined in the same type of immunoassay in which the antibody will ultimately be used.
An analyzer (instrument) useful to set up the assay is Siemens Viva-E. The Siemens Viva-E® System is an automated biochemistry analyzer used by medical and toxicology laboratories to process biological fluid specimens, such as urine, cerebrospinal fluid, and most commonly, blood. […] The enzyme conjugate activity decreases upon binding to the antibody. The enzyme conjugate, which is not bound to the antibody, catalyzes the oxidation of glucose-6-phosphate. The oxidation of glucose-6-phosphate is coupled with the reduction of NAD^+ to NADH, which can be measured at 340 nm. The change in the absorbance at 340 nm can be measured spectrophotometrically. The pregabalin concentration in a urine specimen can be measured in terms of G6PDH activity. The increase in the rate at 340 nm is due to the formation of NADH and is proportional to the enzyme conjugate activity. An assay curve can be generated using pregabalin spiked into pooled human pregabalin-free urine. The assay rate increases with increasing the concentration of free drug in the sample.
The specificity of the immunoassay was evaluated by adding a compound to pooled pregabalin-free human urine samples fortified with EDTA, and NaN3 preservative and testing the samples and determining the percent cross-reactivity. Separate stock solutions of each compound were prepared in methanol. […] The percentage cross-reactivity was calculated for each compound tested.

Row | SMILES | % Crossreactivity [%]
1 | N[C@@H](CC(=O)O)C(=O)O [L-Aspartic Acid] | 0.004
2 | CSCC[C@H](N)C(=O)O [L-Methionine] | 0.031
3 | N[C@@H](CCC(=O)O)C(=O)O [L-Glutamic Acid] | 0.006
4 | CC(C)[C@H](N)C(=O)O [L-Valine] | 0.006
5 | NCCCC[C@H](N)C(=O)O [L-Lysine] | 0.001
6 | N[C@@H](Cc1c[nH]cn1)C(=O)O [L-Histidine] | 0.007
7 | O=C(O)[C@@H]1CCCN1 [L-Proline] | 0.004
8 | CC(C)C[C@H](N)C(=O)O [L-Leucine, L-leucine] | 0.038
9 | N[C@@H](Cc1ccc(O)cc1)C(=O)O [L-Tyrosine] | 0.004
10 | NCC(=O)O [L-Glycine] | 0.005
11 | C[C@@H](O)[C@H](N)C(=O)O [L-Threonine] | 0.005
12 | N[C@@H](CS)C(=O)O [L-Cysteine] | 0.005
13 | CC[C@H](C)[C@H](N)C(=O)O [L-Isoleucine] | 0.008
14 | NC(=O)CC[C@H](N)C(=O)O [L-Glutamine] | 0.004
15 | N[C@@H](CO)C(=O)O [L-Serine] | 0.005
16 | NC(=O)C[C@H](N)C(=O)O [L-Asparagine] | 0.004
17 | NCC1(CC(=O)O)CCCCC1 [Gabapentin] | 0.019
18 | C[C@H](N)C(=O)O [L-Alanine] | 0.004
19 | N[C@@H](Cc1ccccc1)C(=O)O [L-Phenylalanine] | 0.006
20 | N=C(N)NCCC[C@H](N)C(=O)O [L-Arginine] | 0.006
21 | N[C@@H](Cc1c[nH]c2ccccc12)C(=O)O [L-Tryptophan] | 0.006

Each molecule was assayed on antibody #10930 (assay: not given). Settings: not given.
Type: binding, rabbit

Row | SMILES | Reaction Rate (mA/min) Average of Duplicates
22 | CC(C)C[C@H](CN)CC(=O)O [Pregabalin, (S)-3-(aminomethyl)-5-methylhexanoic acid] | 432.5 mA/min and 344.0 mA/min and 381.5 mA/min and 407.0 mA/min
